Data: patent US20220296627A1, “Cytidine Derivatives and Methods of Forming Cytidine Derivatives” (Aenorasis Commercial Company of Pharmaceutical and Medical …, priority 2019, published 2022)

Columns and labels:
[1] = tested on: A549/WT wild type human lung adenocarcinoma cell line; test: Cell growth assay (SRB) in A549/WT; format: cell-based; conditions: for Ratio of IC50 in the presence of dipyridamole / IC50 in the absence of dipyridamole / Ratio of IC50 in the presence of, compared to in the absence of, dipyridamole: A549/WT; for Ratio of IC50 in the presence of dipyridamole / IC50 in the absence of dipyridamole: 4-N-acyl and 4-N-phosphoryl derivatives (Table 5); for IC50: Homo sapiens, A549, A549/WT; for Ratio of IC50 in the presence of, compared to in the absence of, dipyridamole: acetylated 4-N-acyl derivatives (Table 7)
Protocol: (§1) Biological activities of the Gemcitabine derivative (which may be referred to as analogues) described above were evaluated with two assays: • 1. Cell growth assay using the SRB assay in cell lines A549/WT, SW1573/WT, PANC-01 and BXPC-3. • 2. MTT assay in human bladder cancer cell line T-24
(§2) The following cell lines were tested: • A549/WT —wild type human lung adenocarcinoma cell line (1) • SW1573/WT —wild type non-small lung human cell line (2), • PANC-01—human pancreatic cancer cell line (3) • BXPC-3 -epithelial human pancreatic adenocarcinoma cells (4).
(§3) Dipyridamole inhibits adenosine uptake by erythrocytes platelets and endothelial cells in vitro and in vivo. Thus, the present inventors recruited dipyridamole as an inhibitor of the nucleoside transporters of the tumour cells to observe the behaviour of the presently described Gemcitabine derivatives.
(§4) From the IC50 of each compound in the presence of dipyridamole, by dividing it with the IC50 of each compound in the absence of dipyridamole, the present inventors calculated a ratio that compared the efficacy of the analogous presence of dipyridamole.
(§5) Ratio=IC50 in the presence of dipyridamole/IC50 in the absence of dipyridamole • FIG. 10. Ratio of IC50 of 4-N-acyl and 4-N-phosphoryl derivatives in the presence of, compared to in the absence of, dipyridamole, in four cell lines

[2] = tested on: SW1573/WT wild type non-small lung human cell line; test: Cell growth assay (SRB) in SW1573/WT; format: cell-based; conditions: for IC50: Homo sapiens, SW1573, SW 1573/WT; for Ratio of IC50 in the presence of dipyridamole / IC50 in the absence of dipyridamole / Ratio of IC50 in the presence of, compared to in the absence of, dipyridamole: SW 1573/WT; for Ratio of IC50 in the presence of dipyridamole / IC50 in the absence of dipyridamole: 4-N-acyl and 4-N-phosphoryl derivatives (Table 5); for Ratio of IC50 in the presence of, compared to in the absence of, dipyridamole: acetylated 4-N-acyl derivatives (Table 7)
Protocol: as §1, §2, §3, §4, §5

[3] = tested on: PANC-01 human pancreatic cancer cell line; test: Cell growth assay (SRB) in PANC-01; format: cell-based; conditions: for Ratio of IC50 in the presence of dipyridamole / IC50 in the absence of dipyridamole: 4-N-acyl and 4-N-phosphoryl derivatives (Table 5); for IC50: Homo sapiens, Pancreatic cancer cell; for Ratio of IC50 in the presence of, compared to in the absence of, dipyridamole: acetylated 4-N-acyl derivatives (Table 7)
Protocol: as §1, §2, §3, §4, §5

[4] = tested on: BXPC-3 epithelial human pancreatic adenocarcinoma cells; test: Cell growth assay (SRB) in BXPC-3; format: cell-based; conditions: for Ratio of IC50 in the presence of dipyridamole / IC50 in the absence of dipyridamole / Ratio of IC50 in the presence of, compared to in the absence of, dipyridamole: BXPC-3; for Ratio of IC50 in the presence of dipyridamole / IC50 in the absence of dipyridamole: 4-N-acyl and 4-N-phosphoryl derivatives (Table 5); for IC50: Homo sapiens, BXPC-3, BXPC-3; for Ratio of IC50 in the presence of, compared to in the absence of, dipyridamole: acetylated 4-N-acyl derivatives (Table 7)
Protocol: as §1, §2, §3, §4, §5

Human plasma stability = format: in vitro ADME; conditions: 37° C., 24 hours incubation, 0.1 μM, triplicates
Protocol: Human plasma stability of 4-N-ethyl carbamate
1. The final concentration of 4-N-ethyl carbamate Gemcitabine in human plasma was 0.1 μM.
2. Each sample was studied in triplicates.
3. The time points during incubation in which the present inventors evaluated the concentration of derivative were: 0, 1, 2, 4, 18 and 24 hours (FIG. 16). The derivative was stable after 24 hours incubation (96% still remaining).
4. A calibration curve was designed in order to quantify the concentration of derivative in human plasma (FIG. 17). Five calibrators were used at concentrations range of 0.01, 0.05, 0.1, 0.2 and 0.4 μM. Coefficient of determination (r^2) was calculated 0.999418.
5. Accuracy in terms of trueness and precision was evaluated through the analysis of three replicates at three concentration levels (low: 0.025 μM, mid: 0.08 μM and high: 0.3 μM). The trueness was expressed as the percentage difference between the calculated concentrations and the theoretical prepared concentrations while precision was expressed as CV%.
6. LOQ was determined at 0.01 μM with trueness and precision 8.49% and 9.66% respectively and within the acceptable limits for LOQ (<20%).
FIG. 17. In vitro stability of Ethyl-(4-N-Gemcitabine) carbamate (derivative 1) after 24 h incubation in human plasma at 37° C.

[5] = tested on: human bladder cancer cell line T-24; test: MTT assay, cell viability of T-24 cells; format: cell-based; conditions: 100 μM; for inhibition of cell growth (cell viability, MTT), order of potency: 5000 cells/well; for cell viability (MTT), most potent derivatives: 10000 cells/well
Protocol: as §1
The cell viability of T-24 bladder cancer cells upon treatment with the Gemcitabine derivatives was evaluated using the MTT assay. T24 cancer cells were cultured in DMEM (Gibco) high glucose supplemented with 10% FBS and 1% Penicillin/Streptomycin (100 U/mL Penicillin and 100 μg/mL Streptomycin), at 37 ° C. in humidified atmosphere of 5% CO2.
For the MTT assay 5000 or 10000 cells were seeded in triplicates in 96-well plates. Stock solutions of each derivative were prepared in DMSO/EtOH (1:1 v/v). Then, the cells were treated and incubated with 100 μM of each compound for 24 or 48 hours. After the completion of the incubation time, 10 μL of MTT solution (5 mg/ml in PBS buffer) were added in each well and incubated for 4 hrs. Finally, to stop the reaction, the supernatant from each well was removed and 100 μL of stop mix solution (20% SDS in 50% dimethyl formamide in water) were added. The plate remained in darkness for 2 h and the absorbance was measured at 540 nm via a microplate ELISA reader (Awareness Technology Inc.) with a reference at 630 nm. The % cell viability for each compound was calculated relatively to the absorbance of the untreated cells (control).
Two sets of experiments were performed at concentrations of 100 μM, and the absorption of formazan was measured after 24 and 48 hours.
Another experiment was conducted with the MTT assay where the compounds were incubated for 48 hours at […] derivative concentration where the number of cells seeded per well was 10000.

[6] = Photolysis under UV irradiation (absorption spectrum); format: physicochemical; conditions: 10 μM in MeOH, UV lamp at 366 nm for 240 minutes, room temperature
Description: After ultraviolet irradiation at a specific photo-digested group wavelength in the range from 350 to 500 nm (or greater than 700 nm when utilising two photon excitation), the active form of the encapsulated molecule is released irreversibly. Photo-inclusion has often been performed in vitro for the spatio-temporal control of biological processes and the release of light-induced payload. […] The present inventors believe that this dual strategy is of great value for therapeutic applications while it requires non-invasive and space-time drug activation. In order to show this dual drug release mechanism, the present inventors performed photolysis experiments (FIG. 2).
The spectra of derivative 7 (10 μM) and Gemcitabine (5 μM) were recorded on a Perkin Elmer Lambda 25 spectrometer at room temperature. The samples were solubilized in MeOH grade HPLC grade and irradiated with UV lamp at 366 nm for 240 minutes. The present inventors noticed that in the range of 280-290 nm and 320-330 nm there is a decrease in the absorption intensity and at the same time there is an increase in intensity to 250-270 nm. […] This theory is supported by the increase in the band corresponding to Gemcitabine.

[7] = 4-N-acyl and 4-N-phosphoryl derivatives (Table 4)
[8] = acetylated 4-N-acyl derivatives (Table 6)

| Compound | Ratio of IC50 in the presence of dipyridamole / IC50 in the absence of dipyridamole [1] | IC50 [1, 7] [nM] | IC50 [2, 7] [nM] | Ratio of IC50 in the presence of dipyridamole / IC50 in the absence of dipyridamole [2] | Ratio of IC50 in the presence of dipyridamole / IC50 in the absence of dipyridamole [3] | IC50 [3, 7] [nM] | Ratio of IC50 in the presence of dipyridamole / IC50 in the absence of dipyridamole [4] | IC50 [4, 7] [nM] | inhibition of cell growth (cell viability, MTT), order of potency ([5]; 24 hours) | inhibition of cell growth (cell viability, MTT), order of potency ([5]; 48 hours) | cell viability (MTT), most potent derivatives ([5]; 48 hours) | Ratio of IC50 in the presence of, compared to in the absence of, dipyridamole [1] | IC50 [1, 8] [nM] | IC50 [2, 8] [nM] | IC50 [3, 8] [nM] | Ratio of IC50 in the presence of, compared to in the absence of, dipyridamole [3] | Ratio of IC50 in the presence of, compared to in the absence of, dipyridamole [4] | IC50 [4, 8] [nM] | other results |
| --- | --- | --- | --- | --- | --- | --- | --- | --- | --- | --- | --- | --- | --- | --- | --- | --- | --- | --- | --- |
| CCOC(=O)Nc1ccn(C2OC(CO)C(O)C2(F)F)c(=O)n1 (stereo not drawn) [Derivative 1, Ethyl-(4-N-Gemcitabine) carbamate] | 16.2 | 1600 | 1150 | 21 | 4.1 | 3900 | 23.2 | 860 |  |  |  |  |  |  |  |  |  |  | still remaining after incubation in human plasma (Human plasma stability): 96% |
| O=C(Nc1ccn(C2OC(CO)C(O)C2(F)F)c(=O)n1)OCCl (stereo not drawn) [Derivative 4] | 6.3 | 100 | 100 | 10 | 22 | 45 | 4.5 | 100 | greater potency than the parent drug Gemcitabine | 17>4>11 and then Gemcitabine | most potent |  |  |  |  |  |  |  |  |
| COc1cc(COC(=O)Nc2ccn(C3OC(CO)C(O)C3(F)F)c(=O)n2)c([N+](=O)[O-])cc1OC (stereo not drawn) [Derivative 7, (4,5-dimethoxy)-2-nitrobenzyl-(4-N-Gemcitabine) carbamate] | 14.2 | 460 | 440 | 11 | 3.3 | 1500 | 13.9 | 230 |  |  |  |  |  |  |  |  |  |  | photolysis on irradiation (absorption spectrum over time) [6]: release of Gemcitabine |
| O=C(Nc1ccn(C2OC(CO)C(O)C2(F)F)c(=O)n1)OCc1cn(C2=CC3C=CC(O)=CC3OC2=O)nn1 (stereo not drawn) [Derivative 11, (1-(7-hydroxy-2-oxo-4a,8a-dihydro-2H-chromen-3-yl)-1H-1,2,3-triazol-4-yl) methyl-4-N-Gemcitabine carbamate] | 11 | 430 | 420 | 11.9 | 4.6 | 1600 | 25 | 200 | greater potency than the parent drug Gemcitabine | 17>4>11 and then Gemcitabine | most potent |  |  |  |  |  |  |  |  |
| CCCCOC(=O)Nc1ccn(C2OC(COC(C)=O)C(OC(C)=O)C2(F)F)c(=O)n1 (stereo not drawn) [Derivative 14] |  |  |  |  |  |  |  |  |  |  | most potent | 0.83 | 3100 | 2800 | 6500 | 0.9 | 1.77 | 1350 | Ratio of IC50 in the presence of, compared to in the absence of, dipyridamole [2]: 1.4 |
| CC(=O)OCC1OC(n2ccc(NC(=O)OCCl)nc2=O)C(F)(F)C1OC(C)=O (stereo not drawn) [Derivative 17] |  |  |  |  |  |  |  |  | greater potency than the parent drug Gemcitabine | 17>4>11 and then Gemcitabine |  | 2.4 | 2000 | 140 | 700 | 1.8 | 3.5 | 95 |  |
| Nc1ccn([C@@H]2O[C@H](CO)[C@@H](O)C2(F)F)c(=O)n1 [Gemcitabine, 2′,2′-difluoro-2′-deoxycytidine, reference compound] | 15 | 18 | 11 | 22.7 | 3.4 | 52 | 26.6 | 9 |  | 17>4>11 and then Gemcitabine |  | 18 | 15 | 9.6 | 31 | 7.4 | 24.3 | 13 | Ratio of IC50 in the presence of, compared to in the absence of, dipyridamole [2]: 1 |
